Measured values: ChEMBL document CHEMBL3046945, “Enantioselective Antifungal Activity of Pefurazoate against Pathogens of Rice Seed Diseases” (J Pestic Sci, 2001)

How the values were obtained:
[1] = tested on: Bipolaris oryzae; assay: Antifungal activity against Bipolaris oryzae assessed as diameter of mycelial colony after 3 to 4 days by agar dilution method; format: functional, organism-based
[2] = tested on: Pyricularia oryzae; assay: Antifungal activity against Magnaporthe oryzae assessed as diameter of mycelial colony after 3 to 4 days by agar dilution method; format: functional, organism-based
[3] = tested on: Fusarium fujikuroi; assay: Antifungal activity against benzimidazole-sensitive Fusarium fujikuroi assessed as diameter of mycelial colony after 3 to 4 days by agar dilution method; format: functional, organism-based
[4] = tested on: Fusarium fujikuroi; assay: Inhibition of ergosterol biosynthesis in benzimidazole-sensitive Fusarium fujikuroi assessed as incorporation of [2-14C] acetate into ergosterol at 7.35 ppm by autoradiography; format: functional
[5] = tested on: Fusarium fujikuroi; assay: Inhibition of ergosterol biosynthesis in benzimidazole-sensitive Fusarium fujikuroi assessed as incorporation of [2-14C] acetate into 24-methylenedihydrolanosterol at 7.35 ppm by autoradiography; format: functional
[6] = tested on: Fusarium fujikuroi; assay: Inhibition of ergosterol biosynthesis in benzimidazole-sensitive Fusarium fujikuroi assessed as incorporation of [2-14C] acetate into total lipids at 7.35 ppm by autoradiography; format: functional
[7] = tested on: Fusarium fujikuroi; assay: Inhibition of ergosterol biosynthesis in benzimidazole-sensitive Fusarium fujikuroi assessed as incorporation of [2-14C] acetate into lipid fraction at 7.35 ppm by autoradiography; format: functional
[8] = tested on: Fusarium fujikuroi; assay: Inhibition of ergosterol biosynthesis in benzimidazole-sensitive Fusarium fujikuroi assessed as incorporation of [2-14C] acetate into total lipids at 0.24 ppm by autoradiography; format: functional
[9] = tested on: Fusarium fujikuroi; assay: Inhibition of ergosterol biosynthesis in benzimidazole-sensitive Fusarium fujikuroi assessed as incorporation of [2-14C] acetate into ergosterol at 0.24 ppm by autoradiography; format: functional
[10] = tested on: Fusarium fujikuroi; assay: Inhibition of ergosterol biosynthesis in benzimidazole-sensitive Fusarium fujikuroi assessed as incorporation of [2-14C] acetate into 24-methylenedihydrolanosterol at 0.24 ppm by autoradiography; format: functional
[11] = tested on: Fusarium fujikuroi; assay: Inhibition of ergosterol biosynthesis in benzimidazole-sensitive Fusarium fujikuroi assessed as incorporation of [2-14C] acetate into lipid fraction at 0.24 ppm by autoradiography; format: functional

SMILES | EC50 [1] | EC50 [2] | EC50 [3] | inhibition at 7.35 ppm [4] | inhibition at 7.35 ppm [5] | inhibition at 7.35 ppm [6] | inhibition at 7.35 ppm [7] | inhibition at 0.24 ppm [8] | inhibition at 0.24 ppm [9] | inhibition at 0.24 ppm [10] | inhibition at 0.24 ppm [11]
C=CCCCOC(=O)C(CC)N(Cc1ccco1)C(=O)n1ccnc1 (racemic) [Pefurazoate] | 0.84 ppm | 0.89 ppm | 0.49 ppm | – | – | – | – | – | – | – | –
C=CCCCOC(=O)[C@@H](CC)N(Cc1ccco1)C(=O)n1ccnc1 [(R)-(+)-pefurazoate] | 3.89 ppm | 3.21 ppm | 7.35 ppm | 1.3% | 14.2% | 1.6% | 84.5% | – | – | – | –
C=CCCCOC(=O)[C@H](CC)N(Cc1ccco1)C(=O)n1ccnc1 [(S)-(-)-pefurazoate] | 0.41 ppm | 0.61 ppm | 0.24 ppm | – | – | – | – | 1.3% | 1.3% | 13.9% | 84.8%
